In US8008506B2, “Indazole compounds” (priority 2008, dated 2011):

Tests used:
[1] = target: T1, human β3 adrenergic receptor (Homo sapiens, UniProt P13945); experiment: Test Example 1-A: human β3 adrenergic receptor agonist activity (cAMP EIA, transfected CHO cells, 24-well); type: cell-based; conditions: Table 1; maximum response to isoproterenol taken as 100%
T1 construct: the full length human β3 gene is obtained from a human genomic library; expressed in transfected cells; host or cells: CHO (Chinese Hamster Ovary) cells, pcDNA3, geneticin selection
T1 sequence (P13945 whole entry): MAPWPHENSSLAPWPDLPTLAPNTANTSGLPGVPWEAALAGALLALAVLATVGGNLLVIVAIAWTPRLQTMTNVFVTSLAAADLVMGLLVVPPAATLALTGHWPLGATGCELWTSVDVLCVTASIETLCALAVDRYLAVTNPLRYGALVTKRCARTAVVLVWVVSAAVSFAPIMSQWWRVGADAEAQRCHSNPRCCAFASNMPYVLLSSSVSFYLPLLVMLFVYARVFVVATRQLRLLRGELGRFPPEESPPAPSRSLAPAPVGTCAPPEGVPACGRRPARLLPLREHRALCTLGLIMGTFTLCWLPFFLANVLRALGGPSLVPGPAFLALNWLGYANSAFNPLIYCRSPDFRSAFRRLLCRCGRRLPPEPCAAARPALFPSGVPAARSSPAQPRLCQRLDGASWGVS
Description: (§1) Measurement of Human β3 Adrenergic Receptor Agonist Activity
The measurement of human β3 adrenergic receptor agonist activity is carried out using CHO (Chinese Hamster Ovary) cells transfected with pcDNA3 (manufactured by Invitrogen, Inc.) to which human β3 gene has been inserted. […] This human β3 cDNA fragment is used as a probe, and the full length human β3 gene is obtained from a human genomic library (manufactured by Clontech Laboratories, Inc.). The above cells are cultured in Ham's F-12 medium containing 10% fetal bovine serum and 400 μg/ml geneticin (manufactured by Invitrogen, Inc.). These cells are seeded on a 24-well plate to a concentration of 1×10^5 cells/well, and after being cultured for about 20 hours, the cells are left to stand in serum-free Ham's F-12 medium for 2 hours. A test compound is initially dissolved in DMSO, and then is diluted stepwise with Ham's F-12 containing 20 mmol/L HEPES, 1 mmol/L isobutylmethylxanthine, and 1 mmol/L ascorbic acid. The dilution is added to the cells. After the cells are cultured for 30 minutes, and then the medium is removed, followed by addition of 0.1 ml of 1 N NaOH to the cells. The cells are left to stand for 20 minutes, and then are added with 0.1 ml of 1 N acetic acid and are stirred. The resulting cell lysate is centrifuged, and then is subjected to quantification of cAMP with cAMP EIA kit (manufactured by Cayman Chemical Co.).

[2] = target: T1, human β3 adrenergic receptor; experiment: Test Example 1-B: human β3 adrenergic receptor agonist activity (cAMP-Screen kit, transfected CHO cells, 96-well); type: cell-based; conditions: Table 2; maximum response to isoproterenol taken as 100%
Description: as §1
The measurement of human β3 adrenergic receptor agonist activity is carried out using CHO (Chinese Hamster Ovary) cells transfected with pcDNA3 (manufactured by Invitrogen, Inc.) to which human β3 gene has been inserted. […] This human β3 cDNA fragment is used as a probe, and the full length human β3 gene is obtained from a human genomic library (manufactured by Clontech Laboratories, Inc.). The above cells are cultured in Ham's F-12 medium containing 10% fetal bovine serum and 400 μg/ml geneticin (manufactured by Invitrogen, Inc.). These cells are seeded on a 96-well plate to a concentration of 2×10^4 cells/well, and after being cultured for about 20 hours, the cells are left to stand in 80 μL of serum-free Ham's F-12 medium for 15 minutes. A test compound is initially dissolved in DMSO, and then is diluted stepwise with Ham's F-12 containing 100 mmol/L HEPES and 1 mmol/L isobutylmethylxanthine. 20 μL of the dilution is added to the cells. After the cells are cultured for 30 minutes, the medium is removed. 0.3. ml of the Assay/lysis Buffer included in cAMP-Screen kit (manufactured by Applied Biosystems, Inc.) is added to the cells, and the cells are incubated at 37° C. for 30 minutes. The resulting cell lysate is subjected to quantification of cAMP with the cAMP-Screen kit.

[3] = tested on: urinary bladder smooth muscle isolated from common marmoset; experiment: Test Example 7: relaxant activity on urinary bladder smooth muscle isolated from common marmoset; conditions: KCl 40 mmol/L contraction, papaverine 10^−4 mol/L relaxation taken as 100%
Description: Common marmosets are (CLEA Japan, Inc.) exsanguinated to death, and then are subjected to laparotomy to isolate the urinary bladder therefrom. […] The strips are applied a resting tension of 1 g, and are equilibrated for at least 30 minutes. After the resting tension of the strips have been equilibrated, KCl at a final concentration of 40 mmol/L is repeatedly added to the organ bath, and it is confirmed that contraction due to KCl becomes almost constant. […] When the relaxation response at the maximum concentration of the test compound is completed, papaverine at a final concentration of 10^−4 mol/L is added, and the maximum relaxation response of each strip is determined.

CC(C)NCC(O)c1ccc(O)c(O)c1 (stereo not shown) [Isoproterenol, reference compound]
β3 receptor I.A. [1]: 100% | β3 receptor I.A. [2]: 100% | relaxant activity (%) 10^−4 M ([3]; 10^−4 M): 62.8% | relaxant activity (%) 10^−5 M ([3]; 10^−5 M): 58.0%
